Source: patent US20040101544A1, “Method for detoxifying a carbohydrate containing solution” (priority 2000, published 2004)

Key:
[1] = test system: mouse fibroblasts cells L-929; assay: In vitro assay for cytotoxicity: inhibition of cell growth (ICG); assay type: cell-based
Procedure: Carbohydrate containing medical solutions used for peritoneal dialysis were mixed with 1 part of a cell growth medium and 10% (volume/volume) fetal calf serum was added (Wieslander et al., 1991, Kidney Int. 40:77-79). The basal cytotoxicity of the medical solution used for peritoneal dialysis was determined on mouse fibroblasts cells L-929 (CCL-1; ATTC, Rockville, Md., USA) as described earlier (Wieslander et al. 1993, Advances in Peritoneal Dialys, 9:31-35) and expressed as inhibition of cell growth (ICG).
Mouse fibroblast cells (L-929) were grown and incubated according to Järkelid et al., 2000, ATLA 28, 415-425. Inhibition of cell growth was determined for a 4% PD fluid with the following composition
Additionally dose response curves were made in MEM (Minimal Essential Medium).
The results from incubation of L-929 cells with synthetic 3,4-dideoxy-glucosone-3-ene added in MEM are presented in table 1 below showing the values plotted in FIG. 5. The 4% PD solution was autoclaved while the PD fluid was sterile filtered. The PD solutions were tested twice (% ICG1 and % ICG2) and the mean ICG was calculated.

[2] = Biological effects of 3,4-dideoxy-glucosone-3-ene (test not specified)
[3] = test system: mouse fibroblasts cells L-929; settings: alone or in mixtures at the concentrations found in PD fluids; cited from earlier work

3,4-dideoxy-glucosone-3-ene [3,4-DGE]
% ICG1 ([1]; 5 μM 3,4-DGE in MEM): 24% | % ICG2 ([1]; 5 μM 3,4-DGE in MEM): 12% | % ICG3 ([1]; 5 μM 3,4-DGE in MEM): 31% | mean % ICG ([1]; 5 μM 3,4-DGE in MEM): 21,5% | % ICG1 ([1]; 15 μM 3,4-DGE in MEM): 47% | % ICG2 ([1]; 15 μM 3,4-DGE in MEM): 49% | % ICG3 ([1]; 15 μM 3,4-DGE in MEM): 44% | mean % ICG ([1]; 15 μM 3,4-DGE in MEM): 46,5% | % ICG1 ([1]; 52 μM 3,4-DGE in MEM): 92% | % ICG2 ([1]; 52 μM 3,4-DGE in MEM): 80% | % ICG3 ([1]; 52 μM 3,4-DGE in MEM): 88% | mean % ICG ([1]; 52 μM 3,4-DGE in MEM): 84% | % ICG2 ([1]; 2,5 μM 3,4-DGE in MEM): 5% | % ICG3 ([1]; 2,5 μM 3,4-DGE in MEM): 20% | mean % ICG ([1]; 2,5 μM 3,4-DGE in MEM): 12,5% | % ICG1 ([1]; 10,4 μM 3,4-DGE in MEM): 36% | % ICG2 ([1]; 10,4 μM 3,4-DGE in MEM): 51% | % ICG3 ([1]; 10,4 μM 3,4-DGE in MEM): 42% | mean % ICG ([1]; 10,4 μM 3,4-DGE in MEM): 46,5% | % ICG1 ([1]; 24,3 μM 3,4-DGE in MEM): 63% | % ICG2 ([1]; 24,3 μM 3,4-DGE in MEM): 65% | % ICG3 ([1]; 24,3 μM 3,4-DGE in MEM): 58% | mean % ICG ([1]; 24,3 μM 3,4-DGE in MEM): 61,5% | EC50 ([1]; dose response curves in MEM, L-929 cells): 16 µM | toxicity in cytotoxicity test ([1]; fibroblast cells): toxic to fibroblast cells | concentration below which no biological effects seem to be present [2]: < 2 μM

O=CC(=O)C[C@H](O)[C@H](O)CO [3-deoxyglucosone]
toxicity in the L-929 system [3]: None of these five listed compounds show toxicity

CC=O [acetaldehyde]
toxicity in the L-929 system [3]: None of these five listed compounds show toxicity

C=O [formaldehyde]
toxicity in the L-929 system [3]: None of these five listed compounds show toxicity

O=CC=O [glyoxal]
toxicity in the L-929 system [3]: None of these five listed compounds show toxicity
